# Measurements published in paper PMC10298626 (International Journal of Molecular Sciences, 2023).
# Legend:
# Type in all cases: cell-based, Mouse
# [1] = test system: iNOS; test: iNOS protein expression (immunoblotting) in LPS-stimulated RAW264.7 cells; details: 20, 40, and 80 μM pretreatment 2 h; LPS 500 ng/mL 24 h
# Method: (§1) RAW264.7 cells were seeded into 6-well plates (2 × 10^6 cells/well) and incubated for 24 h. The cells were incubated with 20, 40, and 80 μM of coumarin derivative 2 for 2 h, and then LPS (500 ng/mL) was added for 30 min (for phosphorylation of ERK, JNK, p38, and p65) and 24 h (for protein expression of iNOS).
# The cells were washed with PBS and lysed with radioimmunoprecipitation assay buffer containing 1 mM dithiothreitol (Wako, Tokyo, Japan), phosphatase inhibitor cocktail, 1 mM phenylmethylsulfonylfluoride, 1 mM sodium orthovanadate (Sigma), and 10 mM β-glycerophosphate (Sigma). The extracted proteins were centrifuged at 13,000× g rpm, separated via sodium dodecyl sulfate polyacrylamide gel electrophoresis, and transferred to polyvinylidene fluoride membranes. […] For detection, the antibodies were developed with Super Signal® West Femto Substrate (ThermoFisher, Waltham, MN, USA) and analyzed on a Fusion Solo Chemiluminescence System (Vilber Lourmat, Paris, France) ECL detection system.
# (§2) Figure 4 Effect of coumarin derivative 2 on iNOS protein expression in LPS-stimulated RAW264.7 cells. […] (c) RAW264.7 cells (2.0 × 10^6 cells/6 cm dish) were pretreated with coumarin derivative 2 (20, 40, and 80 μM) for 2 h and incubated with LPS (500 ng/mL) for 6 h. iNOS mRNA expression levels were measured via a real-time quantitative reverse transcription polymerase chain reaction. […]
# [2] = test system: TNF-α mRNA; test: TNF-α mRNA expression (qRT-PCR) in LPS-stimulated RAW264.7 cells; details: 20, 40, and 80 μM; 2 h pretreatment, LPS 500 ng/mL 6 h
# Method: (§3) RAW264.7 cells were seeded into a 6-well plate (2 × 10^6 cells/well) and cultured for 24 h. The cells were treated with coumarin derivative 2 at 20, 40, and 80 μM and cultured for 2 h and with LPS (500 ng/mL) for 6 h.
# (§4) The cells were washed with phosphate-buffered saline (PBS) and lysed with the RNeasy Mini kit (Qiagen, Hilden, Germany) for RNA isolation. RNA was converted to cDNA using the AccuPower reverse transcriptase Premix Kit (Bioneer, Daejeon, Republic of Korea). A Power SYBR Green PCR Master Mix (Applied Biosystems, Waltham, MN, USA) was used to perform polymerase chain reaction amplification. Amplification conditions were selected within the Quant 3 PCR system (Applied Biosystems). The data were normalized to the amount of glyceraldehyde 3-phosphate dehydrogenase.
# (§5) Figure 3 Effects of coumarin derivative 2 on IL-6 and TNF-α production and mRNA expression in LPS-stimulated RAW264.7 cells. (a) Effect of coumarin derivative 2 on TNF-α and IL-6 production in RAW264.7 cells. The RAW264.7 cells (1 × 10^5/well, 96-well plates) were pretreated with coumarin derivative 2 (20, 40, and 80 μM) for 2 h and incubated with LPS (500 ng/mL) for 20 h. An ELISA kit was used to analyze cell supernatants for TNF-α and IL-6. […] IL-6 and TNF-α mRNA expression levels were measured via a real-time quantitative reverse transcription polymerase chain reaction.
# [3] = test system: IL-6; test: IL-6 production (ELISA) in LPS-stimulated RAW264.7 cells; details: 20, 40, and 80 μM; 2 h pretreatment, LPS 500 ng/mL 20 h; concentration-dependent
# Method: (§6) Macrophages stimulated by pathogens and cytokines are activated and play an important role in regulating the immune response, inflammatory response, and metabolism. LPS-activated RAW264.7 cells were treated with 20, 40, or 80 μM of coumarin derivative 2 and cultured for 24 h, and the levels of TNF-α and IL-6 in the culture medium were analyzed.
# (§7) RAW264.7 cells were seeded into 96-well plates and cultured for 24 h. After 2 h of treatment with 20, 40, or 80 μM of coumarin compound derivative 2, the cells were incubated with LPS (500 ng/mL) for 20 h. ELISA kits (R & D Systems, Minneapolis, MN, USA) were used to collect and analyze the cell supernatants for TNF-α and IL-6.
# as §5, with “IL-6. (b) Effect of coumarin derivative 2 on mRNA expression of IL-6 and TNF-α in RAW264.7 cells.” for “IL-6.”
# [4] = test system: TNF-α; test: TNF-α production (ELISA) in LPS-stimulated RAW264.7 cells; details: 20, 40, and 80 μM; 2 h pretreatment, LPS 500 ng/mL 20 h; concentration-dependent
# Method: as §6, §7
# as §5, with “IL-6. (b) Effect of coumarin derivative 2 on mRNA expression of IL-6 and TNF-α in RAW264.7 cells.” for “IL-6.”
# [5] = test system: iNOS mRNA; test: iNOS mRNA expression (qRT-PCR) in LPS-stimulated RAW264.7 cells; details: 20, 40, and 80 μM; 2 h pretreatment, LPS 500 ng/mL 6 h
# Method: as §3, §4
# as §2, with “cells. (a) RAW264.7 cells (2.0 × 10^6 cells/6 cm dish) were pretreated with coumarin derivative 2 (20, 40, and 80 μM) for 2 h and incubated with LPS (500 ng/mL) for 20 h. Whole-cell lysates were then immunoblotted with the iNOS specific antibody.” for “cells.”
# [6] = test system: ERK; test: LPS-induced phosphorylation of ERK (immunoblotting) in RAW264.7 cells; details: 20, 40, and 80 μM pretreatment 2 h; LPS 500 ng/mL 30 min
# Method: as §1
# The cells were washed with PBS and lysed with radioimmunoprecipitation assay buffer containing 1 mM dithiothreitol (Wako, Tokyo, Japan), phosphatase inhibitor cocktail, 1 mM phenylmethylsulfonylfluoride, 1 mM sodium orthovanadate (Sigma), and 10 mM β-glycerophosphate (Sigma). The extracted proteins were centrifuged at 13,000× g rpm, separated via sodium dodecyl sulfate polyacrylamide gel electrophoresis, and transferred to polyvinylidene fluoride membranes. Nonspecific proteins were blocked by adding 5% skim milk. After blocking, primary antibodies were incubated overnight at 4 °C. After washing with the PBS-T buffer, the secondary antibodies were treated at room temperature for 2 h. For detection, the antibodies were developed with Super Signal® West Femto Substrate (ThermoFisher, Waltham, MN, USA) and analyzed on a Fusion Solo Chemiluminescence System (Vilber Lourmat, Paris, France) ECL detection system.
# Figure 5 Inhibitory effects of coumarin derivative 2 on LPS-induced phosphorylation of MAPKs and NF-κB p65 in RAW264.7 cells. […]
compound,measurement,setting,value
N#CC1=C(N)Oc2c(c(=O)oc3ccccc23)C1c1cccc(F)c1 (stereo not drawn) [Coumarin derivative 2],iNOS expression (immunoblot),[1],inhibited
same,TNF-α mRNA expression,[2],significantly suppressed
same,LPS-induced IL-6 level,[3],significantly reduced
same,LPS-induced TNF-α level,[4],significantly reduced
same,iNOS mRNA expression,[5],significantly suppressed
same,Phosphorylation of ERK,[6],inhibited
